ChEMBL document CHEMBL1201862, “PubChem BioAssay data set” (2004)
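Five compound concentrations were applied to cells in 96-well plates for 48 hours; endpoints were derived by simple linear interpolation of the resulting dose-response curve. At the GI50, growth is halved.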 Calls of active or inactive are those of the source. Rule as the data show it: active = GI50 up to about 1.1 µM and inactive = higher.

Experiments:
Assay in all cases: NCI anticancer screen, dose series, 48 h
[1] = tested on: KM-20L2
[2] = tested on: DMS-273
[3] = tested on: DMS-114
[4] = tested on: M19-MEL
[5] = tested on: DLD-1
[6] = tested on: LXFL 529
[7] = tested on: SNB-78
[8] = tested on: XF498
[9] = tested on: RXF 631

Structure (SMILES) | GI50 [1] | GI50 [2] | GI50 [3] | GI50 [4] | GI50 [5] | GI50 [6] | GI50 [7] | GI50 [8] | GI50 [9]
O=S1(=O)CCN(c2ccccc2CC(c2c[nH]c3ccccc23)c2c[nH]c3ccccc23)CC1 | 8.85 µM (inactive) | 8.63 µM (inactive) | 5.3 µM (inactive) | 5.74 µM (inactive) | 4.37 µM (inactive) | 4.13 µM (inactive) | 30.1 µM (inactive) |  | 
Nc1ccn(C2OC(COC(=O)C34CC5CC(CC(C5)C3)C4)C(O)C2O)c(=O)n1 (stereo not given) | > 100 µM (inactive) | > 100 µM (inactive) | 12.4 µM (inactive) | > 100 µM (inactive) | > 100 µM (inactive) |  | > 100 µM (inactive) |  | 
Cc1ccc(OCC(=O)N2N=C(c3ccccc3)CC2(O)c2ccccc2)cc1 (stereo not given) | 18 µM (inactive) | 20.8 µM (inactive) |  | 44.6 µM (inactive) | 27.9 µM (inactive) | 19.3 µM (inactive) | 22.1 µM (inactive) | > 100 µM (inactive) | 26.9 µM (inactive)
O=C(NCCOC(=O)CCCCCCCCC(=O)OCCNC(=O)NC(=O)c1cn(Cc2ccccc2)c(=O)[nH]c1=O)NC(=O)c1cn(Cc2ccccc2)c(=O)[nH]c1=O | > 100 µM (inactive) | > 100 µM (inactive) | > 100 µM (inactive) | > 100 µM (inactive) | > 100 µM (inactive) | > 100 µM (inactive) | > 100 µM (inactive) | > 100 µM (inactive) | 
COc1ccc2nc3cccc(C(=O)NCCN(C)C)c3nc2c1 | 2.2 µM (inactive) | 1.44 µM (inactive) | 1.29 µM (inactive) | 1.64 µM (inactive) | 1.37 µM (inactive) | 1.26 µM (inactive) | 2.88 µM (inactive) | 0.292 µM (active) | 3.17 µM (inactive)
Cc1ccc(NC(=O)c2cc3cc(/N=N/c4ccc(Br)cc4)ccc3oc2=O)cc1 |  | 41.8 µM (inactive) | 37 µM (inactive) |  | 46.5 µM (inactive) |  | > 100 µM (inactive) | > 100 µM (inactive) | 
O=C1C(=O)N(c2ccc(Cl)cc2Cl)C(=O)C(=O)C1c1nc2ccccc2s1 | > 100 µM (inactive) | > 100 µM (inactive) | > 72.4 µM (inactive) | > 100 µM (inactive) | > 51.8 µM (inactive) | 50.6 µM (inactive) |  | > 55 µM (inactive) | 
Nc1nc(=O)n(C2CC(O)C(O)C(CO)O2)cc1F (stereo not given) | > 100 µM (inactive) |  | > 100 µM (inactive) | > 100 µM (inactive) | > 100 µM (inactive) | > 100 µM (inactive) | > 100 µM (inactive) | 61.4 µM (inactive) | > 100 µM (inactive)
N#Cc1ccccc1NC(=O)C(=O)C(C(=O)c1ccccc1-c1ccccc1)C1OC(=O)c2ccccc21 (stereo not given) | 20.9 µM (inactive) |  | 15.5 µM (inactive) | 14.8 µM (inactive) | 16 µM (inactive) |  | 11.2 µM (inactive) | 16 µM (inactive) | 
N#Cc1c(C(N)=O)ncn1Cc1ccccc1 | > 100 µM (inactive) | > 100 µM (inactive) | > 100 µM (inactive) | > 100 µM (inactive) | > 100 µM (inactive) | > 100 µM (inactive) | > 100 µM (inactive) | > 100 µM (inactive) | > 100 µM (inactive)
CCOC(=O)CCC(NC(=O)c1ccc(/N=C/c2nc3ccccc3nc2-c2ccccc2)cc1)C(=O)OCC (stereo not given) | > 100 µM (inactive) | > 100 µM (inactive) | > 100 µM (inactive) |  | > 100 µM (inactive) | > 100 µM (inactive) | > 100 µM (inactive) | > 100 µM (inactive) | > 100 µM (inactive)
N#Cc1nn(-c2ccc(Cl)cc2)c(=N)c2c(N)n3nc(-c4ccccc4)cc3nc12 | 1 µM (active) | 1 µM (active) |  |  | 1 µM (active) | 0.705 µM (active) | 1 µM (active) | 41.4 µM (inactive) | 
CC(C)N(C(=O)C12C3C4C5C3C1(C#N)C5C42)C(C)C (stereo not given) | > 100 µM (inactive) | > 100 µM (inactive) | > 100 µM (inactive) | > 100 µM (inactive) | > 100 µM (inactive) | > 100 µM (inactive) | > 100 µM (inactive) | > 100 µM (inactive) | 
COc1cc(/C=C2/C(=O)N(C(=O)OC(C)C)C(Cc3cc(OC)c(OC)c(C)c3OC)C(=O)N2Cc2ccccc2)c(OC)c(C)c1OC (stereo not given) | 24.8 µM (inactive) | 14 µM (inactive) | 13.6 µM (inactive) | 57 µM (inactive) | > 100 µM (inactive) | 10.4 µM (inactive) |  |  | 
COC(=O)c1ncc2c(=O)[nH]c3ccccc3c2c1C(=O)OC | > 100 µM (inactive) | > 100 µM (inactive) | > 100 µM (inactive) | > 100 µM (inactive) | > 100 µM (inactive) | > 100 µM (inactive) | > 100 µM (inactive) | > 100 µM (inactive) | > 100 µM (inactive)
C[n+]1c2ccccc2c(/C=N\NS(=O)(=O)c2ccc(Cl)cc2)c2ccccc21 | 42.4 µM (inactive) | 41.8 µM (inactive) | 28.3 µM (inactive) | 81.7 µM (inactive) | 67.5 µM (inactive) |  | > 100 µM (inactive) | 27.3 µM (inactive) | 
CCOC(=O)NC(=O)c1cn(CCCOC(=O)CCCCCCCCC(=O)OCCCn2cc(C(=O)NC(=O)OCC)c(=O)[nH]c2=O)c(=O)[nH]c1=O | 34.5 µM (inactive) | 20.5 µM (inactive) | 6.65 µM (inactive) | 12.9 µM (inactive) | 17.8 µM (inactive) | 28 µM (inactive) | 8 µM (inactive) | 20.7 µM (inactive) | 
c1cc2n(n1)CCN2 | 2970 µM (inactive) | 262 µM (inactive) | 1560 µM (inactive) | 6870 µM (inactive) | 5420 µM (inactive) |  | 4740 µM (inactive) | 431 µM (inactive) | 
CC1(C)OC(=O)[C@@](C)([C@H](O)c2ccccc2)O1 | > 100 µM (inactive) | > 100 µM (inactive) | 56.8 µM (inactive) | > 100 µM (inactive) | > 100 µM (inactive) | > 100 µM (inactive) | > 100 µM (inactive) | > 100 µM (inactive) | 79.4 µM (inactive)
O=C(O)c1ccccc1C1c2ccc(Cl)cc2Oc2cc(Cl)ccc21 | > 100 µM (inactive) | > 100 µM (inactive) | > 100 µM (inactive) | > 100 µM (inactive) | > 100 µM (inactive) | > 100 µM (inactive) |  |  | > 100 µM (inactive)
O=c1c([Se]c2coc3ccccc3c2=O)coc2ccccc12 | 12 µM (inactive) | 11 µM (inactive) | 17.5 µM (inactive) | 15.3 µM (inactive) | 18.2 µM (inactive) | 15.4 µM (inactive) | 19.9 µM (inactive) | 16.8 µM (inactive) | 
CCOP1(=O)C=C(C)C(=C(Cl)Cl)C(C)=C1 (stereo not given) | 2.68 µM (inactive) |  |  | 8.07 µM (inactive) | 24 µM (inactive) | 3.78 µM (inactive) | > 10 µM (inactive) | 0.548 µM (active) | 5.87 µM (inactive)
CN(C)CC(/C(Cc1ccccc1)=N\NC(=O)C[n+]1ccccc1)c1ccccc1 (stereo not given) | > 100 µM (inactive) | 38.8 µM (inactive) | > 100 µM (inactive) | > 100 µM (inactive) |  | > 100 µM (inactive) | 53.2 µM (inactive) | > 100 µM (inactive) | > 100 µM (inactive)
CCOCN1COCN/C1=N/C#N | > 100 µM (inactive) | > 100 µM (inactive) | 71.4 µM (inactive) |  | > 100 µM (inactive) | > 100 µM (inactive) | > 100 µM (inactive) | > 100 µM (inactive) | > 100 µM (inactive)
COc1ccc2cc3c4cc(OC)c(OC)cc4ccn3c2c1 |  | > 100 µM (inactive) | > 100 µM (inactive) | > 100 µM (inactive) | > 100 µM (inactive) | > 100 µM (inactive) | > 100 µM (inactive) | > 100 µM (inactive) | 
CC(C)CCCC(C)[C@H]1CCC2[C@@H]3CCC4Nc5c(cnn5-c5ccccc5)C[C@]4(C)C3CC[C@@]21C (stereo not given in full) | 13.1 µM (inactive) | 2.72 µM (inactive) | 52.8 µM (inactive) | 26.1 µM (inactive) | > 100 µM (inactive) | 24.3 µM (inactive) | 18.7 µM (inactive) | 15.3 µM (inactive) | 13.1 µM (inactive)
CC1=C2C3OC(=O)C(C)C3C(O)C[C@@]2(C)C(=O)CC1 (stereo not given in full) | > 100 µM (inactive) | > 100 µM (inactive) | > 100 µM (inactive) | > 100 µM (inactive) | > 100 µM (inactive) | > 100 µM (inactive) | > 100 µM (inactive) |  | > 100 µM (inactive)
CCC(=O)OC1CCn2c1nc1c2C(=O)C(C)=C(NC(C)=O)C1=O (stereo not given) |  | 1.79 µM (inactive) | 0.425 µM (active) | 1.76 µM (inactive) | 1.84 µM (inactive) | 1.41 µM (inactive) | 1.79 µM (inactive) |  | 
Cc1cc(C)c(C(=O)/C=C/c2ccccc2)c(C)c1 | 32.6 µM (inactive) |  | 24.1 µM (inactive) | 28.5 µM (inactive) | 22.6 µM (inactive) | 31.6 µM (inactive) |  | 12.6 µM (inactive) | 
